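Exposure lasted 48 hours, with cells grown in 96-well plates and compounds tested at five concentrations. GI50 = concentration required for 50% inhibition of growth.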 Active and inactive are the calls of the source. No stated cut-off is given here; in the data, active = GI50 up to about 1.1 µM and inactive = higher. Some results are limits rather than exact numbers.

What all share (assay): DTP human tumour cell line panel, 48 h
Experiment [1] deals with A549.
Experiment [2] relates to BT-549.
Experiment [3] concerns HT-29.
Experiment [4] has as its system Hs-578T.
For experiment [5], the system named is K562.
Experiment [6] has as its system LOX IMVI.
The subject of experiment [7] is M14.
Experiment [8] deals with MOLT-4.
Experiment [9] relates to NCI-H460.
Experiment [10] relates to NCI-H522.
Experiment [11] deals with PC-3.
Experiment [12] has as its system RPMI-8226.
Experiment [13] has as its system SF-539.
Experiment [14] deals with SNB-19.
Experiment [15] has as its system T47D.
Experiment [16] deals with TK-10.
The subject of experiment [17] is UACC-257.
In experiment [18] the test system is HOP-92.
For experiment [19], the system named is SK-OV-3.
The test system of experiment [20] is RXF 393.

Broadly, the GI50 is the concentration that inhibits growth by half. In the case of `Cc1nc(N)c(N2CCN(CN)CC2)c(O)n1`, the GI50 in experiment [1], in experiment [2], in experiment [3], in experiment [4], in experiment [5] and in experiment [6] was > 100 µM (inactive) in each case. Moreover, the GI50 in experiment [7], in experiment [8], in [9], in [10], in [11] and in experiment [12] was > 100 µM (inactive) in each case. Besides, the GI50 in [13], in [14], in [15], in [16] and in [17] was > 100 µM (inactive) each time.

As for `Cc1occc1/C(S)=N\c1ccc(Cl)c(C(=O)OCC(F)(F)F)c1`, the GI50 in experiment [1] was 23.1 µM (inactive); in experiment [2] it was 20.5 µM (inactive); in experiment [18], 17.4 µM (inactive); in [3], 17.5 µM (inactive); in experiment [4], 35.6 µM (inactive); in experiment [5] it was 18.5 µM (inactive). Besides, the GI50 in experiment [6] is 18.4 µM (inactive); in experiment [7], 33.7 µM (inactive); in [8], 18.2 µM (inactive); in experiment [9] it was 22.1 µM (inactive); in experiment [10], 20.4 µM (inactive); in experiment [11], 23.7 µM (inactive). Also, the GI50 was 19 µM (inactive) in experiment [12]; 4.31 µM (inactive) in [13]; 22.3 µM (inactive) in experiment [19]; 20.3 µM (inactive) in [14]; 26.5 µM (inactive) in experiment [15]; 20.2 µM (inactive) in experiment [16]. Besides, the GI50 in [17] was 23.4 µM (inactive).

As to `COC(=O)[C@H](Cc1ccccc1)NC(=O)c1ccc(CNC(=O)/C=C/c2cccc(Oc3ccccc3)c2)cc1`, the GI50 is > 100 µM (inactive) in experiment [1]; > 100 µM (inactive) in experiment [2]; 5.31 µM (inactive) in experiment [18]; 61.8 µM (inactive) in experiment [3]; 10.4 µM (inactive) in experiment [4]; 7.08 µM (inactive) in experiment [5]. The GI50 is 11.9 µM (inactive) in experiment [7]; 9.71 µM (inactive) in experiment [8]; 24.9 µM (inactive) in [9]; 29.4 µM (inactive) in experiment [11]; 28.3 µM (inactive) in experiment [12]; 7.31 µM (inactive) in experiment [20]. The GI50 was 53.5 µM (inactive) in experiment [19]; 28 µM (inactive) in experiment [14]; 56 µM (inactive) in [15]; 24.8 µM (inactive) in experiment [16]; 6.27 µM (inactive) in experiment [17].

Take `CSC(=NC1=NC(C(F)(F)F)(C(F)(F)F)N=C(c2ccccc2)O1)SC`: the GI50 is 10.5 µM (inactive) in experiment [1]; 10.8 µM (inactive) in experiment [2]; 7.8 µM (inactive) in experiment [18]; 16.4 µM (inactive) in experiment [3]; 14.2 µM (inactive) in experiment [4]; 6.1 µM (inactive) in [5]. For the same compound, the GI50 in [6] was 5.75 µM (inactive); in [7], 19 µM (inactive); in experiment [8], 6.07 µM (inactive); in experiment [9], 12.2 µM (inactive); in experiment [10] it was 3.1 µM (inactive); in experiment [11], 5.14 µM (inactive). Also, the GI50 is 5.77 µM (inactive) in [20]; 29.2 µM (inactive) in experiment [13]; 16.4 µM (inactive) in experiment [19]; 5.22 µM (inactive) in experiment [14]; 3.1 µM (inactive) in experiment [15]; 7.93 µM (inactive) in experiment [16]. Besides, the GI50 in [17] was 22 µM (inactive).

Take `CC(C)C(C/C=C1/CC(CO)(COC(=O)c2ccccc2)OC1=O)C(C)C` (stereo not given): the GI50 was 12.4 µM (inactive) in experiment [1]; 18.3 µM (inactive) in [2]; 17.5 µM (inactive) in experiment [18]; 18.7 µM (inactive) in [3]; 7.43 µM (inactive) in experiment [4]; 9.04 µM (inactive) in experiment [5]. In addition, the GI50 was 23.8 µM (inactive) in [6]; 15.7 µM (inactive) in experiment [7]; 11.8 µM (inactive) in experiment [8]; 17 µM (inactive) in experiment [9]; 19.9 µM (inactive) in [10]; 13.6 µM (inactive) in experiment [11]. For the same compound, the GI50 was 16.7 µM (inactive) in [20]; 4.69 µM (inactive) in experiment [13]; 45.4 µM (inactive) in experiment [19]; 16.7 µM (inactive) in experiment [14]; 15.6 µM (inactive) in experiment [15]; 16.5 µM (inactive) in experiment [16]. For the same compound, the GI50 in [17] was 24.8 µM (inactive).

For the compound `Cc1ccc(OCC2OC(n3cnc4nc(Nc5ccc(Cl)c(Cl)c5)nc(Cl)c43)CC2Oc2ccc(C)cc2)cc1` (stereo not given), the GI50 in experiment [1], in experiment [2], in experiment [3], in [4], in [5] and in [7] was > 100 µM (inactive) in each case. The GI50 in [8] was > 100 µM (inactive); in experiment [9], 27.2 µM (inactive); in experiment [11], > 100 µM (inactive); in [12], > 100 µM (inactive); in [20], > 100 µM (inactive); in [19] it was > 100 µM (inactive). The GI50 in experiment [14], in experiment [15], in experiment [16] and in experiment [17] was > 100 µM (inactive) in each case.

As to `Cc1ccc(O)c(-c2cc(-c3cccc(Br)c3)c(C#N)c(N)n2)c1`, the GI50 is 27.6 µM (inactive) in [1]; 37.2 µM (inactive) in experiment [2]; 23.9 µM (inactive) in [3]; 25.5 µM (inactive) in experiment [4]; 21.8 µM (inactive) in [5]; 16.3 µM (inactive) in [6]. For the same compound, the GI50 was 31.9 µM (inactive) in experiment [7]; 20.1 µM (inactive) in experiment [8]; 19.6 µM (inactive) in experiment [9]; 18.9 µM (inactive) in [10]; 17.7 µM (inactive) in experiment [11]; 11.5 µM (inactive) in [12]. For the same compound, the GI50 in [20] was 20.8 µM (inactive); in experiment [13] it was 29.1 µM (inactive); in [19] it was 31.9 µM (inactive); in [14] it was 19.3 µM (inactive); in [15], 17.7 µM (inactive); in experiment [16] it was 18.2 µM (inactive). The GI50 in experiment [17] is 20.8 µM (inactive).

Consider `O=C(Cn1c(C(=O)/C=C/c2ccc(Cl)cc2)nc2ccccc21)c1ccc(Cl)cc1`, for which the GI50 in experiment [1] was 21 µM (inactive); in experiment [2], 24.5 µM (inactive); in [18], 34.3 µM (inactive); in [3], 15 µM (inactive); in [4], 10.9 µM (inactive); in experiment [5], 6.07 µM (inactive). Also, the GI50 was 16 µM (inactive) in experiment [6]; 18.1 µM (inactive) in experiment [7]; 2.26 µM (inactive) in experiment [8]; 10.9 µM (inactive) in [9]; 22.5 µM (inactive) in [11]; 6.18 µM (inactive) in experiment [12]. In addition, the GI50 in experiment [20] was 15.5 µM (inactive); in [13], 18.3 µM (inactive); in [19], 26.9 µM (inactive); in experiment [14], 20.7 µM (inactive); in experiment [15], 28.6 µM (inactive); in experiment [16] it was 30.8 µM (inactive). The GI50 in experiment [17] is 24.1 µM (inactive).

Turning to `CCOC(=O)Nc1cc2c(c(N)n1)N=C(c1ccc3ccccc3c1)CN2`, the GI50 in experiment [1] is 0.299 µM (active); in experiment [2], 1.75 µM (inactive); in experiment [18], 0.275 µM (active); in [3] it was 0.301 µM (active); in experiment [4] it was 0.0302 µM (active); in experiment [5] it was < 0.01 µM (active). The GI50 in experiment [6] is 0.0559 µM (active); in experiment [7], 0.617 µM (active); in [8], 0.0226 µM (active); in experiment [9] it was 0.0918 µM (active); in experiment [10], 0.0769 µM (active); in experiment [11], 0.0407 µM (active). Moreover, the GI50 in experiment [20] is 0.105 µM (active); in experiment [13] it was 0.08 µM (active); in [19], 0.2 µM (active); in experiment [14] it was 0.0614 µM (active); in experiment [15], 22.8 µM (inactive); in experiment [16], 4.36 µM (inactive). Further, the concentration for 50% growth inhibition (GI50) in experiment [17] is 0.815 µM (active).

`CN1B(c2ccccc2)N(C)C(=O)N(C)C1=O`: the GI50 was > 100 µM (inactive) in experiment [1]; > 100 µM (inactive) in experiment [2]; > 100 µM (inactive) in experiment [18]; > 100 µM (inactive) in [3]; 81.3 µM (inactive) in [4]; > 100 µM (inactive) in [5]. Besides, the GI50 in experiment [7], in experiment [9], in [11], in [12], in [20] and in experiment [13] was > 100 µM (inactive) throughout. For the same compound, the GI50 in experiment [19], in [14], in experiment [15], in [16] and in [17] was > 100 µM (inactive) throughout.

With `CCCCCCCSCC(O)COC(c1ccccc1)(c1ccccc1)c1ccccc1` (stereo not given), the GI50 in experiment [1] was 26.7 µM (inactive); in experiment [2], 73.1 µM (inactive); in experiment [18] it was 26.7 µM (inactive); in experiment [3], 19.7 µM (inactive); in experiment [4], 3.52 µM (inactive); in experiment [5], 54.6 µM (inactive). Moreover, the GI50 in experiment [6] was 36.1 µM (inactive); in experiment [7], 61.7 µM (inactive); in experiment [8], 28.4 µM (inactive); in experiment [9], 30.1 µM (inactive); in [10], 35.2 µM (inactive); in [11], 29.3 µM (inactive). Further, the GI50 in experiment [12] is 17.5 µM (inactive); in [13], > 100 µM (inactive); in [19], > 100 µM (inactive); in [14], 76.6 µM (inactive); in [15], 32.7 µM (inactive); in experiment [16], 87.3 µM (inactive). Besides, in experiment [17], the GI50 is 34.5 µM (inactive).

The record behind these values is ChEMBL document CHEMBL1201862, “PubChem BioAssay data set” (2004).
